Literature values, collected in patent US8486889B1, “Composition and method for the treatment and prevention of endothelial dysfunction” (Advanced Medical Instruments, priority 2001, dated 2013).
Each block holds one molecule with its values, some of them ahead of it.

Key:
[1] = aspirin use
[2] = in a fast dissolving tablet
[3] = 325 mg ASA every other day
[4] = those on ASA
[5] = 500 mg/day, after one month
[6] = glucosamine combined with an NSAID, activity preserved
[7] = in vivo
[8] = not given; remark: listed apart in the source
[9] = Vioxx compared to naproxen
[10] = rabbit
[11] = taken orally, versus placebo
[12] = rats, intragastric indomethacin, pre-treatment with zinc sulphate
[13] = simultaneous administration of zinc
[14] = 600 mg per day, double-blind trial

Molecule: CC(=O)Oc1ccccc1C(=O)O [ASA, Acetylsalicylic acid]
- reduction of the risk of breast cancer [1]: 20%
- reduction of the risk of colorectal cancer [1]: 50%
- reduction of the risk of lung cancer [1]: 30%
- reduction of the risk of prostate cancer [1]: 50%
- ASA absorbed by the buccal mucosa [2]: 16-35%
- time to reach blood levels and inhibit platelet activity (chewing the tablet): 5 min
- time to reach peak blood levels (in vivo): 30 min
- reduction in the incidence of subsequent myocardial infarction, stroke, and death from cardiovascular causes ([3]; about 5 years): 25%
- reduction in the incidence of first myocardial infarction ([3]; about 5 years, 22,000 US male physicians): 44%
- fewer strokes [4]: 42%

Molecule: O=C1O[C@H]([C@@H](O)CO)C(O)=C1O [Ascorbic acid]
- lowering of systolic blood pressure [5]: 10%

- absorbed in the GI tract [7]: 90%
- solubility [8]: very soluble in water
Molecule: N[C@H]1C(O)O[C@H](CO)[C@@H](O)[C@@H]1O (stereo partly shown) [Glucosamine]
- factor of decrease of the amount of NSAID required to produce an antiexudative result [6]: 2-2.7 times

- solubility [8]: high lipid and aqueous solubility
Molecule: COc1ccc2[nH]cc(CCNC(C)=O)c2c1 [Melatonin]

- risk of myocardial infarction [9]: four fold risk
Molecule: CS(=O)(=O)c1ccc(C2=C(c3ccccc3)C(=O)OC2)cc1 [Vioxx, rofecoxib]

- time to peak of effectiveness ([10]; 2.5 mg sublingual tablet): 20.8 min
- time to peak effectiveness ([10]; injection): 15.8 min
Molecule: CNC[C@H](O)c1ccc(O)c(O)c1 [epinephrine, Epinephrine]

Molecule: O=S(=O)([O-])[O-].[Zn+2] [zinc sulphate]
- rate of gastric ulcer healing [11]: three times the rate of a placebo
- mucosal ulcerations [12]: completely prevented

Molecule: [Zn] [zinc]
- salicylate-induced hearing loss [13]: completely prevented

Molecule: Vitamin E
- endothelial-dependent dilation of the brachial artery [14]: showed improvement
